Values joined by “and” are separate entries in the source; they are usually repeats but may differ in a detail not shown here. Identical values can stand only once.
Legend:
Type in all cases: cell-based, human
[1] = system: Ls174T; assay: Sensitivity to oxaliplatin, MTS assay; settings: 48 hours of drug exposure, cell survival rate by MTS assay
Protocol: (§1) Nine human colorectal cancer cell lines (SW480, Ls174T, Lovo, SW620, HCT116, HCT15, HT29, DLD-1, and WiDr) were obtained from the following sources (Table 1).
(§2) Culture was carried out under the conditions of 0100 mm/Tissue Culture Dish (IWAKI), culture medium (D-MEM, 2 mM Glutamine, 10% Fetal Bovine Serum), 37° C., and 5% CO2.
(§3) The aforementioned nine human colorectal cancer cell lines were respectively inoculated onto a 96 well plate at a density of 1,500 cells/well, and after 24 hours, oxaliplatin was added thereto. The cell survival rate after 48 hours of drug exposure was evaluated by the MTS assay (CellTiter96™ AQueous One Solution Cell Proliferation Assay, Promega), and the IC50 values were determined from the absorbance values. Regarding the drug exposure conditions, eleven conditions such as Control (0 μM), 0.001 μM, 0.01 μM, 0.1 μM, 0.3 μM, 1 μM, 3 μM, 10 μM, 30 μM, 100 μM, and 1,000 μM were used. The evaluation of sensitivity was performed three times with cells of different passage numbers, by measuring three samples each for the respective cell lines, drug exposure time, and drug exposure conditions in a single time test. An analysis was carried out based on the survival rate calculated from the results of the MTS assay.

[2] = system: SW620; assay: Sensitivity to oxaliplatin, MTS assay; settings: SW620, 48 hours of drug exposure, cell survival rate by MTS assay
Protocol: as §1, §2, §3

[3] = system: HCT15; assay: Sensitivity to oxaliplatin, MTS assay; settings: HCT15, 48 hours of drug exposure, cell survival rate by MTS assay
Protocol: as §1, §2, §3

[4] = system: DLD-1; assay: Sensitivity to oxaliplatin, MTS assay; settings: DLD-1, 48 hours of drug exposure, cell survival rate by MTS assay
Protocol: as §1, §2, §3

[5] = system: Lovo; assay: Sensitivity to oxaliplatin, MTS assay; settings: 48 hours of drug exposure, cell survival rate by MTS assay
Protocol: as §1, §2, §3

[6] = system: HCT116; assay: Sensitivity to oxaliplatin, MTS assay; settings: HCT116, 48 hours of drug exposure, cell survival rate by MTS assay
Protocol: as §1, §2, §3

[7] = system: WiDr; assay: Sensitivity to oxaliplatin, MTS assay; settings: 48 hours of drug exposure, cell survival rate by MTS assay
Protocol: as §1, §2, §3

[8] = system: SW480; assay: Sensitivity to oxaliplatin, MTS assay; settings: SW480, 48 hours of drug exposure, cell survival rate by MTS assay
Protocol: as §1, §2, §3

[9] = system: HT29; assay: Sensitivity to oxaliplatin, MTS assay; settings: HT29, 48 hours of drug exposure, cell survival rate by MTS assay
Protocol: as §1, §2, §3

[10] = system: Ls174T into which siRNA had been introduced; assay: Sensitivity to oxaliplatin after introduction of siRNA, MTS assay; settings: for sensitivity to oxaliplatin compared to the case where the control siRNA had been introduced: 150 pmol siRNA per well
Protocol: as §3
(§4) Among the nine kinds of colorectal cancer cell lines described in Test Example 1, Ls174T was used as an oxaliplatin-high-sensitivity cell line, HCT116 was used as a moderate-sensitivity cell line, and HT29 and DLD-1 were used as low-sensitivity cell lines.
(§5) Each of the human colorectal cancer cell lines was inoculated into a 6-well plate at a density of 1×10^5 cells/well, and after 24 hours, the medium was replaced with serum-free DMEM medium (Wako, 044-29765). A solution obtained by dissolving 150 pmol per well of each of the siRNAs indicated in Table 8 in 250 μL of Opti MEM (GIBCO, No. 319985) was mixed with a solution obtained by mixing 4.5 μL of Lipofectamin RNAiMAX Reagent (Invitrogen, No. 13778-150) and 250 μL of Opti MEM (GIBCO, No. 319985). The resultant mixture was incubated for 10 to 20 minutes. After incubation, 500 μL each of the mixture was added to each well of the 6-well plate on which the human colorectal cancer cell lines were cultured, and the medium in each well was replaced with a serum-added DMEM medium (Wako, 044-29765) 4 to 6 hours after the addition. The cells were collected 24 hours after the addition of siRNA.
(§6) Regarding the control siRNA, siRNA of No. 4390843 of Life Technologies, Inc. was used.
(§7) Measurement of the sensitivity to oxaliplatin (measurement of IC50 values) of the human colorectal cancer cell lines into which siRNA had been introduced, was performed by the method described in Test Example 1(1)(c).

[11] = system: HCT116 into which siRNA had been introduced; assay: as above; settings: for sensitivity to oxaliplatin compared to the case where the control siRNA had been introduced: HCT116, 150 pmol siRNA per well
Protocol: as §3, §4, §5, §6, §7

[12] = system: HT29 into which siRNA had been introduced; assay: as above; settings: for sensitivity to oxaliplatin compared to the case where the control siRNA had been introduced: HT29, 150 pmol siRNA per well
Protocol: as §3, §4, §5, §6, §7

[13] = system: DLD-1 into which siRNA had been introduced; assay: as above
Protocol: as §3, §4, §5, §6, §7

O=C1[O][Pt]2([NH][C@@H]3CCCC[C@H]3[NH]2)[O]C1=O [oxaliplatin, (SP-4-2)-[(1R,2R)-cyclohexane-1,2-diamine-κN, κN′] [ethanedio ato(2-)-κO^1, κO^2]platinum]
IC50 [1]: 610 ± 110 nM
IC50 [2]: 1140 ± 740 nM
IC50 [3]: 1450 ± 440 nM
IC50 [4]: 13900 ± 6290 nM
IC50 [5]: 790 ± 180 nM
IC50 [6]: 1150 ± 340 nM
IC50 [7]: 17700 ± 8390 nM
IC50 [8]: 430 ± 130 nM
IC50 [9]: 7990 ± 2660 nM
IC50 ([10]; Control siRNA introduced): 860 nM and 680 nM
IC50 ([10]; IPYR siRNA introduced): 390 nM
IC50 ([10]; PHB siRNA introduced): 11900 nM
IC50 ([10]; TALDO siRNA introduced): 430 nM
IC50 ([11]; HCT116, ANXA5 siRNA introduced): 760 nM
IC50 ([11]; HCT116, C1QBP siRNA introduced): 2180 nM
IC50 ([11]; HCT116, Control siRNA introduced): 1720 nM and 1390 nM and 1530 nM and 1340 nM
IC50 ([11]; HCT116, PHB siRNA introduced): 21500 nM
IC50 ([11]; HCT116, TALDO siRNA introduced): 730 nM
IC50 ([12]; HT29, ANXA5 siRNA introduced): 5350 nM
IC50 ([12]; HT29, Control siRNA introduced): 16100 nM
IC50 ([12]; HT29, PHB siRNA introduced): 41900 nM
IC50 ([12]; HT29, TALDO siRNA introduced): 2770 nM
IC50 ([13]; DLD-1, Control siRNA introduced): 14700 nM
IC50 ([13]; DLD-1, PHB siRNA introduced): 52300 nM

ANXA5 siRNA: siRNA GUACAUGACUAUAUCAGGAtt (life technologies, s1392), SEQ ID NO: 2 (GUACAUGACUAUAUCAGGATT; chemistry not given here)
sensitivity to oxaliplatin compared to the case where the control siRNA had been introduced [11]: enhanced
sensitivity to oxaliplatin compared to the case where the control siRNA had been introduced [12]: enhanced

C1QBP siRNA: siRNA GGCCUUAUAUGACCACCUAtt (life technologies, s2139), SEQ ID NO: 4 (GGCCUUAUAUGACCACCUATT; chemistry not given here)
sensitivity to oxaliplatin compared to the case where the control siRNA had been introduced [11]: decreased

IPYR siRNA: siRNA GGAAUCAGUUGCAUGAAUAtt (life technologies, s10878), SEQ ID NO: 5 (GGAAUCAGUUGCAUGAAUATT; chemistry not given here)
sensitivity to oxaliplatin compared to the case where the control siRNA had been introduced [10]: enhanced

PHB siRNA: siRNA CGUGGGUACAGAAACCAAUtt (life technologies, s10424), SEQ ID NO: 1 (CGUGGGUACAGAAACCAAUTT; chemistry not given here)
sensitivity to oxaliplatin compared to the case where the control siRNA had been introduced [10]: decreased
sensitivity to oxaliplatin compared to the case where the control siRNA had been introduced [11]: decreased
sensitivity to oxaliplatin compared to the case where the control siRNA had been introduced [12]: decreased
sensitivity to oxaliplatin compared to the case where the control siRNA had been introduced ([13]; DLD-1, 150 pmol siRNA per well): decreased

TALDO siRNA: siRNA UGCUAUUGAUAAACUUUUUtt (life technologies, s13776), SEQ ID NO: 3 (UGCUAUUGAUAAACUUUUUTT; chemistry not given here)
sensitivity to oxaliplatin compared to the case where the control siRNA had been introduced [10]: enhanced
sensitivity to oxaliplatin compared to the case where the control siRNA had been introduced [11]: enhanced
sensitivity to oxaliplatin compared to the case where the control siRNA had been introduced [12]: enhanced

— patent US20170248578A1, “ANTI-CANCER AGENT SENSITIVITY-DETERMINING MARKER” (KEIO UNIVERSITY, priority 2014, published 2017)
